Legend:
Type in all cases: biochemical, Chlamydia trachomatis
CtHtrA I365D = experiment: Act1 activation of Bcas1 proteolysis by mutated protein; conditions: I365D mutant; Act1 120 µM
Source text: (§1) The hexameric CtHtrA molecular model was examined to identify the putative PDZ1 activator binding cleft (Fig. 4). The base of this cleft in CtHtrA is a hydrophobic pocket formed by the residues L302 and I365 (V328 in E. coli DegP) (Fig. 4). L302 and I365 were targeted for site directed mutagenesis (L302N and I365D) to make this non-polar pocket either polar or charged. The role of a potential conformational change caused by movement of the whole PDZ1 domain relative to the protease subunit was also tested by mutating a highly conserved arginine residue (R299W) on the flexible loop between the protease and PDZ domains. This mutation was made in order to alter the flexibility around this residue while occupying a similar sized area. Additionally, a second mutation was made in conjunction with the R299W mutation on the residue R373A which potentially forms a salt bridge between the PDZ domain and protease domain. This double mutation was made in order to reduce the flexibility and disrupt the mobile salt bridge involved in the PDZ1:protease domain interface. The R373A mutation was also made independently of R299W. These mutated proteins were assayed to examine the impact of the changes on Act1 activation on the Bcas1 substrate proteolysis. […]
(§2) The purified recombinant protein was examined by Coomassie stained polyacrylamide gels and activity was checked using ß-casein cleavage assays prior to use in peptide assays. […] Protease assays using pNA labelled peptides were conducted using the xMARK Microplate spectrophotometer (Bio-Rad) at 405 nm, incubated at 37°C, with a reading taken every 10 s for 30 min. The maximum slope over a minimum of 8 readings was used for the data analysis. […] The assays were excited at 340 nm and emission was detected at 405 nm with a gain of 1000, the assays were monitored every 20 s or at the minimum cycle time for up to 40 min. […] The assay results shown for the fluorescent compounds have been normalised for the amount of fluorescent emission detected using a standard curve of known concentrations of the MCA fluorophore under the identical assay conditions. […]

CtHtrA R299W/R373A = experiment: as above; conditions: R299W/R373A mutant; Act1 120 µM
Source text: as §1, §2

CtHtrA R373A = experiment: as above; conditions: R373A mutant; Act1 120 µM
Source text: as §1, §2

CtHtrA R373A/R299W = experiment: Oligomerisation assay, mutated protein; conditions: R373A/R299W mutant, 10 mins incubation
Source text: This activation was very similar to that observed for CtHtrA, and was the only condition during which any of the mutated proteins oligomerised in a similar profile to CtHtrA.
The oligomerisation of HtrA into 12- and 24-mer complexes has been independently detected for E. coli HtrA (DegP). The oligomerisation of HtrA (DegP) was triggered by peptides from digested ß-casein [18]. Assays to detect whether CtHtrA and site directed mutant protein oligomerisation was triggered by substrates were conducted essentially as previously described (Merdanovic et al., 2010). Briefly, 2 mg/ml protein solutions in 100 mM sodium phosphate buffer pH 7.0 were pre-incubated to the required temperature. The ligands (activator peptide, or insulin) were added and at 10 min, and the proteins were fixed using 0.5% glutaraldehyde. Samples were fixed at room temperature for 2 min prior to addition of 1 M Tris pH 7.5 to remove any excess glutaraldehyde. Samples were incubated for another 10 min at room temperature prior to addition of SDS PAGE reducing loading buffer. The protein samples were examined on 3–8% TrisAcetate gradient polyacrylamide gels (Novex, Invitrogen) by silver staining. The proteins used in this study were not initially denatured by treatment with urea as, the refolding, formation of oligomers, and protease activity was never successfully detected with denatured CtHtrA. […]

H-VLGPVRGPFPIIV-OH [Act1]
effect of Act1 on Bcas1 proteolysis rate (CtHtrA I365D): failed to increase the proteolysis rate
effect of Act1 on Bcas1 proteolysis rate (CtHtrA R299W/R373A): failed to increase the proteolysis rate
effect of Act1 on Bcas1 proteolysis rate (CtHtrA R373A): failed to increase the proteolysis rate
oligomer formation induced by activator (CtHtrA R373A/R299W): induced R373A/R299W 24-mer formation
